Data published in US10918648B2, “Estrogen receptor modulator combinations” (The Regents of the University of California, priority 2016, dated 2021).
Where two headings read alike, the source gives them in different places.

Columns and labels:
A549 NSCLC cells = experiment: NSCLC cell proliferation in vitro (MTS assay); type: cell-based, human; conditions: 72 hours, MTS assay
H1975 NSCLC cells = experiment: NSCLC cell proliferation in vitro (MTS assay); type: cell-based, human; conditions: 72 hours
Method: (§1) Cell culture: Human breast and non-small cell lung cancer cells (MCF7, ZR75-1, MDAMB231, A549, H23, H1975, […]) were from ATCC. MCF7-HER2 were a kind gift of Dr. Dennis Slamon (23). Cell lines were routinely maintained in RPMI 1640 or DMEM medium with 10% fetal bovine serum (FBS) (Sigma-Aldrich) and 1% Antibiotic-Antimycotic solution 100× (Mediatech, Herndon, Va.). When indicated, for estrogen-free conditions, media was changed 48 h before experiments to phenol-red free RPMI 1640/DMEM with 1% dextran-coated, charcoal-treated (DCC)-FBS (24,25). Otherwise experiments were performed in phenol-red free RPMI 1640/DMEM medium with 5% DCC-FBS.
(§2) Cell proliferation assays: breast and lung tumor cells (between […]) were plated in 96 well plates using their respective medium with 10% FBS. For experiments using estradiol-17β, cells were rinsed with PBS and incubated with phenol redfree medium with 1% DCC-FBS for 48 hours as described before (24,25). Cells were then treated with different concentrations of SERDs ranging between 0.0001-100 μM. […] Cell counts and viability tests (Trypan blue) were done every 24 hr for 3 days. After 72 hr, proliferation was assessed with the MTS Assay CELLTITER 96® Aqueous Cell Proliferation Assay (Promega) or the Cell Proliferation ELISA, BrdU colorimetric assay (Roche). For the MTS, the absorbance of the formazan product was measured at 490 nanometer using the iMARK microplate reader from BIORAD. The BrdU ELISA assay is based on detection of BrdU incorporated into the genomic DNA of proliferating cells and an anti-BrdU antibody, the reaction product was quantified by measuring the absorbance at 370 nanometers using iMARK microplate reader from BIORAD. Cell numbers were also assessed initially by cell counts to confirm MTS/BrdU data. Experiments were done at least three times to confirm data.

H2122 NSCLC cells = experiment: NSCLC cell proliferation in vitro (MTS assay); type: cell-based, human; conditions: 72 hours
Method: as §1, §2

[1] = test system: MCF-7 breast cancer cells; experiment: MCF-7 breast cancer cell proliferation (BrdU ELISA) in presence of estradiol-17β; type: cell-based, human; conditions: Homo sapiens, MCF7; 72 hrs in the presence of 1 nM estradiol-17β, BrdU ELISA; read-out: IC50 for inhibition of cell proliferation, MCF-7
Method: In experiments to assess potential proliferative effects of novel estrogen receptor ligands, human breast cancer cells were grown in phenol red-free, estrogen-free media with 1% dextran-coated charcoal-treated (DCC)-fetal bovine serum (FBS) for 48 hrs (15,44), then treated with either 1 μM or 50 μM doses of estrogen receptor antagonists in the presence of 1 nM estradiol-17β. Cell counts and viability tests (Trypan blue) were done every 24 hr for 3 days. After 72 hr, proliferation was assessed using the BrdU Cell proliferation ELISA (Roche). Cell numbers were also assessed initially by cell counts to confirm ELISA data. Each antiestrogen was tested at least in three different experiments.
In order to assess the antitumor action of novel estrogen receptor antagonists, we cultured human MCF-7 breast cancer cells with known expression of ERα. Cells were grown in 1% DCC-FBS for 48 hr and then treated with vehicle control or either 1 μM or 50 μM concentrations of antiestrogens JD 101-160 or the pure antiestrogen fulvestrant (FAS), all in the presence of 1 nM estradiol-170. […] Shown in FIG. 2A are results from MCF-7 cells grown in 1% DCC-FBS for 48 hr and then treated with vehicle control, 1 nM estradiol-170 and either 1 μM or 50 μM concentrations of antiestrogens JD 101-160 or the known pure antiestrogen fulvestrant (FAS) in the presence of 1 nM estradiol-170. Cell proliferation is expressed as percentage of that determined in the 1 nM estradiol-170-treated control group.
as §2

Rb serine-780 = Rb serine-780 phosphorylation, Western blot in A549 cells; type: cell-based, human; conditions: 24 h, 1% DCC-FBS, 1 nM E2, 1 nM androstenedione, 10 nM testosterone, 10 μM letrozole, 100 nM palbociclib, FIG. 4C
Method: FIG. 4C. […] Cells were treated 24 h in phenol red-free RPMI with 1% DCC-FBS with vehicle control (CON), 1 nM estradiol-17β (E2), 1 nM androstenedione (And), 10 nM testosterone (Tes), 10 μM letrozole (AI), 100 nM palbociclib (Plbo) or both Plbo+AI. After 24 hr, cell lysates subjected to Western blot with antibody to phosphoserine-780 Rb or total Rb (Cell Signaling) (20). GAPDH is used as loading control.
To investigate the antitumor efficacy of CDK 4/6 inhibitor palbociclib in NSCLC cells, we assessed the effects of palbociclib alone and in combination with the hormonal therapeutic letrozole (see FIGS. 4B and 5B). The potential mechanism of action of palbociclib and letrozole in NSCLC cells was investigated by assay of the effects of these agents alone and combined on phosphorylation of Rb serine-780

MCF-7 parental cells = conditions: MCF-7 parental xenografts in nude mice; cited from earlier work
MCF-7/HER-2 cells = conditions: MCF-7 cells with HER2-overexpression, xenografts in nude mice; cited from earlier work
ER+ early breast cancer = conditions: cited from earlier work
[2] = Homo sapiens, A549, CDK 4/6 inhibitor without SERD, 5% DCC-FBS, read-out: IC50 for inhibition of NSCLC cell proliferation, A549
[3] = Homo sapiens, NCI-H1975, CDK 4/6 inhibitor without SERD, 5% DCC-FBS, read-out: IC50 for inhibition of NSCLC cell proliferation, H1975
[4] = Homo sapiens, NCI-H2122, CDK 4/6 inhibitor without SERD, 5% DCC-FBS, read-out: IC50 for inhibition of NSCLC cell proliferation, H2122
[5] = Homo sapiens, A549, SERD alone, estrogen-depleted phenol red-free medium with 5% DCC-FBS, read-out: IC50 for inhibition of NSCLC cell proliferation, A549
[6] = Homo sapiens, NCI-H1975, SERD alone, estrogen-depleted phenol red-free medium with 5% DCC-FBS, read-out: IC50 for inhibition of NSCLC cell proliferation, H1975
[7] = Homo sapiens, NCI-H2122, SERD alone, estrogen-depleted phenol red-free medium with 5% DCC-FBS, read-out: IC50 for inhibition of NSCLC cell proliferation, H2122

`CCN1CCN(Cc2ccc(Nc3ncc(F)c(-c4cc(F)c5nc(C)n(C(C)C)c5c4)n3)nc2)CC1` [Abemaciclib, abemaciclib, reference compound] showed an IC50 (A549 NSCLC cells; [2]) of 0.99 µM, an IC50 (H1975 NSCLC cells; [3]) of 0.83 µM and an IC50 (H2122 NSCLC cells; [4]) of 0.33 µM.

With `C[C@]12C[C@H](Oc3ccc(NC(=O)CN4CCOCC4)cc3)[C@@H]3c4ccc(O)cc4CC[C@H]3[C@@H]1CC[C@@H]2O` [JD103, N-(4-(((8S,9S,11S,13S,14S,17S)-3,17-Dihydroxy-13-methyl-7,8,9,11,12,13,14,15,16,17-deca-hydro-6H-cyclopenta[a]phenanthren-11-yl)oxy)phenyl)-2-morpholinoacetamide] the IC50 (A549 NSCLC cells; [5]) was 1.99 µM, the IC50 (A549 NSCLC cells; in the presence of 1 μM abemaciclib, 5% DCC-FBS, read-out: IC50 of SERD for inhibition of NSCLC cell proliferation, A549) was 0.56 µM and the IC50 (A549 NSCLC cells; in the presence of 1 μM palbociclib, 5% DCC-FBS, read-out: IC50 of SERD for inhibition of NSCLC cell proliferation, A549) was 1.22 µM. It also gave an IC50 (H1975 NSCLC cells; [6]) of 2.1 µM, an IC50 (H1975 NSCLC cells; in the presence of 1 μM abemaciclib, 5% DCC-FBS, read-out: IC50 of SERD for inhibition of NSCLC cell proliferation, H1975) of 2.67 µM and an IC50 (H1975 NSCLC cells; in the presence of 1 μM palbociclib, 5% DCC-FBS, read-out: IC50 of SERD for inhibition of NSCLC cell proliferation, H1975) of 4.55 µM. For the same compound, the IC50 (H2122 NSCLC cells; [7]) was 1.33 µM, the IC50 (H2122 NSCLC cells; in the presence of 1 μM abemaciclib, 5% DCC-FBS, read-out: IC50 of SERD for inhibition of NSCLC cell proliferation, H2122) was 0.74 µM and the IC50 (H2122 NSCLC cells; in the presence of 1 μM palbociclib, 5% DCC-FBS, read-out: IC50 of SERD for inhibition of NSCLC cell proliferation, H2122) was 2.4 µM. For the same compound, the IC50 [1] was 0.74 µM.

For `C[C@]12C[C@H](Oc3ccc(NCCN4CCOCC4)cc3)[C@@H]3c4ccc(O)cc4CC[C@H]3[C@@H]1CC[C@@H]2O` [JD121], the IC50 (A549 NSCLC cells; [5]) was 1.26 µM, the IC50 (H1975 NSCLC cells; [6]) was 2.62 µM and the IC50 (H2122 NSCLC cells; [7]) was 14.5 µM. For the same compound, the IC50 [1] was 0.36 µM.

Compound `CN(C)CCCC(=O)Nc1ccc(O[C@H]2C[C@]3(C)[C@@H](O)CC[C@H]3[C@@H]3CCc4cc(O)ccc4[C@H]32)cc1C(F)(F)F` [JD155, N-(4-(((8S,9S,11S,13S,14S,17S)-3,17-Dihydroxy-13-methyl-7,8,9,11,12,13,14,15,16,17-deca-hydro-6H-cyclopenta[a]phenanthren-11-yl)oxy)-2-(trifluoromethyl)phenyl)-4-(dimethylamino)butanamide] has an IC50 (A549 NSCLC cells; [5]) of 2.05 µM, an IC50 (H1975 NSCLC cells; [6]) of 4.41 µM and an IC50 (H2122 NSCLC cells; [7]) of 1.22 µM.

With `C[C@]12C[C@H](Oc3ccc(NC(=O)CCCCN4CCCCC4)c(C(F)(F)F)c3)[C@@H]3c4ccc(O)cc4CC[C@H]3[C@@H]1CC[C@@H]2O` [JD156, N-(4-(((8S,9S,11S,13S,14S,17S)-3,17-Dihydroxy-13-methyl-7,8,9,11,12,13,14,15,16,17-deca-hydro-6H-cyclopenta[a]phenanthren-11-yl)oxy)-2-(trifluoromethyl)phenyl)-5-(piperidin-1-yl)pentanamide] the IC50 (A549 NSCLC cells; [5]) was 1.6 µM, the IC50 (H1975 NSCLC cells; [6]) was 3.2 µM and the IC50 (H2122 NSCLC cells; [7]) was 1.69 µM.

Work on `C[C@]12C[C@H](Oc3ccc(NC(=O)CCCCN4CCOCC4)c(C(F)(F)F)c3)[C@@H]3c4ccc(O)cc4CC[C@H]3[C@@H]1CC[C@@H]2O` [JD157, N-(4-(((8S,9S,11S,13S,14S,17S)-3,17-Dihydroxy-13-methyl-7,8,9,11,12,13,14,15,16,17-deca-hydro-6H-cyclopenta[a]phenanthren-11-yl)oxy)-2-(trifluoromethyl)phenyl)-5-morpholino-pentanamide] yielded an IC50 (A549 NSCLC cells; [5]) of 3.95 µM, an IC50 (H1975 NSCLC cells; [6]) of 1.8 µM and an IC50 (H2122 NSCLC cells; [7]) of 1.28 µM.

For `C[C@]12C[C@H](Oc3ccc(NC(=O)CCCN4CCCCC4)c(C(F)(F)F)c3)[C@@H]3c4ccc(O)cc4CC[C@H]3[C@@H]1CC[C@@H]2O` [JD160, N-(4-(((8S,9S,11S,13S,14S,17S)-3,17-Dihydroxy-13-methyl-7,8,9,11,12,13,14,15,16,17-deca-hydro-6H-cyclopenta[a]phenanthren-11-yl)oxy)-2-(trifluoromethyl)phenyl)-4-(piperidin-1-yl)butanamide], the IC50 (A549 NSCLC cells; [5]) was 1.41 µM, the IC50 (H1975 NSCLC cells; [6]) was 2.02 µM and the IC50 (H2122 NSCLC cells; [7]) was 2.72 µM. For the same compound, the IC50 [1] was 0.32 µM.

In the case of `CC(=O)c1c(C)c2cnc(Nc3ccc(N4CCNCC4)cn3)nc2n(C2CCCC2)c1=O` [Palbociclib, palbociclib, reference compound], the IC50 (A549 NSCLC cells; [2]) is reported as 3.04 µM, the IC50 (H1975 NSCLC cells; [3]) is reported as 1.18 µM and the IC50 (H2122 NSCLC cells; [4]) is reported as 0.87 µM.

In the case of `C[C@]12CCC(=O)C=C1CC[C@@H]1[C@@H]2CC[C@]2(C)C(=O)CC[C@@H]12` [androstenedione], the “phosphorylation of Rb serine-780” value (Rb serine-780) is reported as “stimulate Rb phosphorylation”.

For `CC/C(=C(\c1ccccc1)c1ccc(OCCN(C)C)cc1)c1ccccc1` [tamoxifen], the “growth of parent tumors (xenografts)” value (MCF-7 parental cells) is listed as “suppressed”, the “sensitivity of MCF-7/HER-2 xenografts” value (MCF-7/HER-2 cells) is listed as “insensitive” and the “reduction in disease recurrence” value (ER+ early breast cancer) is listed as 39%. The reduction in mortality (ER+ early breast cancer) was 31%.

With `C[C@]12CC[C@H]3[C@@H](CCC4=CC(=O)CC[C@@]43C)[C@@H]1CC[C@@H]2O` [testosterone] the “phosphorylation of Rb serine-780” value (Rb serine-780) was “stimulate Rb phosphorylation”.
